# Experimental data published in ChEMBL document CHEMBL4715813, “Allicin-inspired pyridyl disulfides as antimicrobial agents for multidrug-resistant Staphylococcus aureus” (Eur J Med Chem, 2018).
# Assays:
# Type in all cases: functional
# Klebsiella pneumoniae = test: Antibacterial activity against multidrug-resistant Klebsiella pneumoniae ATCC 700603 assessed as zone of inhibition by disc diffusion method; further: test concentration or dose not given here
# Enterobacter cloacae = test: Antibacterial activity against Enterobacter cloacae ATCC 23355 assessed as zone of inhibition by disc diffusion method; further: test concentration or dose not given here
# Escherichia coli = test: Antibacterial activity against beta-lactam resistant Escherichia coli BAA 2326 assessed as zone of inhibition by disc diffusion method; further: test concentration or dose not given here
# Acinetobacter baumannii [1] = test: Antibacterial activity against multidrug-resistant Acinetobacter baumannii BAA 1605 assessed as zone of inhibition by disc diffusion method; further: test concentration or dose not given here
# Bacillus anthracis = test: Antibacterial activity against Bacillus anthracis Sterne 34F2 assessed as zone of inhibition by disc diffusion method
# Enterococcus faecium = test: Antibacterial activity against vancomycin-resistant Enterococcus faecium ATCC 700221 assessed as zone of inhibition by disc diffusion method; further: test concentration or dose not given here
# Enterococcus faecalis = test: Antibacterial activity against vancomycin-susceptible Enterococcus faecalis ATCC 29212 assessed as zone of inhibition by disc diffusion method; further: test concentration or dose not given here
# Staphylococcus aureus [2] = test: Antibacterial activity against methicillin-susceptible Staphylococcus aureus ATCC 25923 assessed as zone of inhibition by disc diffusion method; further: test concentration or dose not given here
# Staphylococcus aureus [3] = test: Antibacterial activity against community acquired methicillin-resistant Staphylococcus aureus BAA 1747 assessed as zone of inhibition by disc diffusion method; further: test concentration or dose not given here
# Staphylococcus aureus [4] = test: Antibacterial activity against hospital acquired methicillin-resistant Staphylococcus aureus ATCC 43300 assessed as zone of inhibition by disc diffusion method; further: test concentration or dose not given here
# Staphylococcus aureus [5] = test: Antibacterial activity against heterogeneous vancomycin-intermediate resistant Staphylococcus aureus Mu3 ATCC 700698 assessed as zone of inhibition by disc diffusion method; further: test concentration or dose not given here
# Staphylococcus aureus [6] = test: Antibacterial activity against vancomycin-intermediate resistant Staphylococcus aureus Mu50 ATCC 700699 assessed as zone of inhibition by disc diffusion method; further: test concentration or dose not given here
# Staphylococcus aureus [7] = test: Antibacterial activity against vancomycin-resistant Staphylococcus aureus HIP11714 assessed as zone of inhibition by disc diffusion method; further: test concentration or dose not given here
# [8] = system: Staphylococcus epidermidis; test: Antibacterial activity against Staphylococcus epidermidis ATCC 14990 assessed as zone of inhibition by disc diffusion method; further: test concentration or dose not given here
# Acinetobacter baumannii [9] = test: Antibacterial activity against Acinetobacter baumannii ATCC 19606 assessed as zone of inhibition by disc diffusion method; further: test concentration or dose not given here
# Pseudomonas aeruginosa = test: Antibacterial activity against Pseudomonas aeruginosa ATCC 15422 assessed as zone of inhibition by disc diffusion method; further: test concentration or dose not given here
Structure (SMILES),diameter of the inhibition zone (DIZ) (Klebsiella pneumoniae) [mm],diameter of the inhibition zone (DIZ) (Enterobacter cloacae) [mm],diameter of the inhibition zone (DIZ) (Escherichia coli) [mm],diameter of the inhibition zone (DIZ) (Acinetobacter baumannii [1]) [mm],diameter of the inhibition zone (DIZ) (Bacillus anthracis) [mm],diameter of the inhibition zone (DIZ) (Enterococcus faecium) [mm],diameter of the inhibition zone (DIZ) (Enterococcus faecalis) [mm],diameter of the inhibition zone (DIZ) (Staphylococcus aureus [2]) [mm],diameter of the inhibition zone (DIZ) (Staphylococcus aureus [3]) [mm],diameter of the inhibition zone (DIZ) (Staphylococcus aureus [4]) [mm],diameter of the inhibition zone (DIZ) (Staphylococcus aureus [5]) [mm],diameter of the inhibition zone (DIZ) (Staphylococcus aureus [6]) [mm],diameter of the inhibition zone (DIZ) (Staphylococcus aureus [7]) [mm],diameter of the inhibition zone (DIZ) [8] [mm],diameter of the inhibition zone (DIZ) (Acinetobacter baumannii [9]) [mm],diameter of the inhibition zone (DIZ) (Pseudomonas aeruginosa) [mm]
CCCSSc1ccccn1,0,9,0,0,33,0,11,0,0,0,0,0,0,30,12,0
CCC(C)SSc1ccccn1 (stereo not given),0,0,0,0,23,0,0,0,0,0,0,0,0,20,0,0
CCSSc1ccccn1,0,10,0,12,50,0,15,13,13,12,0,0,0,26,18,0
c1ccc(CSSc2ccccn2)cc1,0,0,0,0,38,14,14,26,20,28,19,23,30,38,9,0
CCCCCCCCCCSSc1ccccn1,0,0,0,0,28,9,9,12,15,14,0,11,11,26,0,0
O=C(O)CCSSc1ccccn1,0,0,0,0,24,0,0,16,14,14,15,15,21,10,0,0
CC(C)CSSc1ccccn1,0,0,0,0,50,0,0,0,0,0,0,0,0,40,0,0
CC(C)C(C)SSc1ccccn1 (stereo not given),0,0,0,0,21,0,0,0,0,0,0,0,0,24,0,0
c1ccc(SSC2CCCCC2)nc1,0,0,0,0,26,0,0,11,14,12,18,0,0,24,0,0
c1ccc(SSC2CCCC2)nc1,0,0,0,0,22,0,0,9,16,14,11,0,0,25,0,0
